Values quoted from earlier work in patent US20130115640A1, “ACTH for Treatment of Kidney Disease” (priority 2011, published 2013).

System: TGF-β
Settings: Losartan 50 mg, 4 weeks, type II diabetes and microalbuminuria

For `CCCCc1nc(Cl)c(CO)n1Cc1ccc(-c2ccccc2-c2nn[nH]n2)cc1` [Losartan], the “plasma TGF-β levels” value is given as “not altered” and the “urinary TGF-β levels” value is given as “significantly reduced”.
